Assay results as given in patent US11845752B2, “Substituted imidazo[1,5-a]pyrazines for the treatment of hepatitis B” (ALIGOS THERAPEUTICS, INC., priority 2020, dated 2023).

tested on: HBV; assay: HBV-DNA antiviral assay using HepG2.117 cells (intracellular HBV DNA by qPCR); assay type: cell-based, HBV genotype D; conditions: HBV DNA inhibition, 3 days incubation, read-out: EC50
In short: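 HepG2.117 cells (stably integrated genotype D HBV, Tet-off) seeded without doxycycline to induce pgRNA, then treated next day with 9 concentrations (4-fold dilutions, 2% DMSO) for 3 days at 37 °C. Intracellular HBV DNA quantified by qPCR against standard curve, viability by ATP content; inhibition relative to DMSO control, EC50/EC90/CC50 by non-linear regression.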

Row | SMILES | EC50
1 | CC1Cn2c(c(C(=O)NCc3ccccc3-c3ccn(CC(F)(F)F)n3)n(-c3ccc(N4CC5(CN(C)C5)C4)cc3)c2=O)CN1C(=O)c1ccc(Br)c(C(F)(F)F)c1 (single isomer, unassigned) [Compound 99b] | 0.05 to 0.5 µM
2 | CC1Cn2c(c(C(=O)NCc3ccccc3-c3ccc(N)nn3)n(-c3ccc(OC4CC4)cc3)c2=O)CN1C(=O)c1ccc(Br)c(Cl)c1 (single isomer, unassigned) [Compound 10b, N-[[2-(6-aminopyridazin-3-yl)phenyl]methyl]-7-(4-bromo-3-chloro-benzoyl)-2-[4-(cyclopropoxy)phenyl]-6-methyl-3-oxo-6,8-dihydro-5H-imidazo[1,5-a]pyrazine-1-carboxamide] | 0.05 to 0.5 µM
3 | CC1Cn2c(c(C(=O)NCc3ccccc3-c3cc(N)ncn3)n(-c3ccc(OC4CC4)cc3)c2=O)CN1C(=O)c1ccc(Br)c(Cl)c1 (single isomer, unassigned) [Compound 8b, N-[[2-(6-aminopyrimidin-4-yl)phenyl]methyl]-7-(4-bromo-3-chloro-benzoyl)-2-[4-(cyclopropoxy)phenyl]-6-methyl-3-oxo-6,8-dihydro-5H-imidazo[1,5-a]pyrazine-1-carboxamide] | < 0.05 µM
4 | CC1Cn2c(c(C(=O)NCc3c(F)cccc3-c3nccc(N)n3)n(-c3ccc(OC4CC4)cc3)c2=O)CN1C(=O)c1ccc(Br)c(C(F)(F)F)c1 (single isomer, unassigned) [Compound 32b] | < 0.05 µM
5 | CC1Cn2c(c(C(=O)NCc3ccccc3-c3cccc(N)n3)n(-c3ccc(OC4CC4)cc3)c2=O)CN1C(=O)c1ccc(Br)c(C(F)(F)F)c1 (single isomer, unassigned) [Compound 27b] | < 0.05 µM

same assay, conditions: Hepatitis B virus, HepG2.117, 72 h, HBV DNA inhibition, 3 days incubation, read-out: EC50

Row | SMILES | EC50
6 | C[C@@H]1Cn2c(c(C(=O)NCc3ccccc3-c3ccccn3)n(-c3ccc(OC[C@](C)(O)C(F)(F)F)cc3)c2=O)CN1C(=O)c1ccc(Br)c(C(F)(F)F)c1 (stereo in doubt) [Compound 90a, rac-(6R)-7-[4-bromo-3-(trifluoromethyl)benzoyl]-6-methyl-3-oxo-N-[[2-(2-pyridyl)phenyl]methyl]-2-[4-[rac-(2S)-3,3,3-trifluoro-2-hydroxy-2-methyl-propoxy]phenyl]-6,8-dihydro-5H-imidazo[1,5-a]pyrazine-1-carboxamide] | 0.05 to 0.5 µM
7 | CNc1cc(-c2ccccc2CNC(=O)c2c3n(c(=O)n2-c2ccc(OC4CC4)cc2)CC(C)N(C(=O)c2ccc(Br)c(C(F)(F)F)c2)C3)ncn1 (single isomer, unassigned) [Compound 40a] | < 0.05 µM
8 | CC1Cn2c(c(C(=O)NCc3c(F)cccc3-c3cccnn3)n(-c3ccc(OC4CC4)cc3)c2=O)CN1C(=O)c1ccc(Br)c(Cl)c1 (single isomer, unassigned) [Compound 49a] | 0.05 to 0.5 µM
9 | CC1Cn2c(c(C(=O)NCc3ccccc3-c3ccccn3)n(-c3ccc(N4CC5(CN(C)C5)C4)cc3)c2=O)CN1C(=O)c1ccc(Br)c(C(F)(F)F)c1 (single isomer, unassigned) [Compound 77a] | < 0.05 µM
10 | CC1Cn2c(c(C(=O)NCc3c(F)cccc3Cl)n(-c3ccc4c(cnn4CC(F)(F)F)c3)c2=O)CN1C(=O)c1ccc(Br)c(C(F)(F)F)c1 (single isomer, unassigned) [Compound 104a] | < 0.05 µM
11 | O=C(NCc1ccccc1)c1c2n(c(=O)n1-c1ccc3c(ccn3CCO)c1)CCN(C(=O)c1ccc(Br)c(Cl)c1)C2 [Compound 128, N-benzyl-7-(4-bromo-3-chloro-benzoyl)-2-[1-(2-hydroxyethyl)indol-5-yl]-3-oxo-6,8-dihydro-5H-imidazo[1,5-a]pyrazine-1-carboxamide] | 0.05 to 0.5 µM
12 | CC1Cn2c(c(C(=O)NCc3ccccc3-c3c[nH]cn3)n(-c3ccc(OC4CC4)cc3)c2=O)CN1C(=O)c1ccc(Br)c(Cl)c1 (single isomer, unassigned) [Compound 44a] | 0.05 to 0.5 µM
13 | CC1Cn2c(c(C(=O)NCc3ccccc3-c3ncccn3)n(-c3ccc(OC4CC4)cc3)c2=O)CN1C(=O)c1ccc(Br)c(Cl)c1 (single isomer, unassigned) [Compound 3a, (6S*)-7-(4-bromo-3-chloro-benzoyl)-2-[4-(cyclopropoxy)phenyl]-6-methyl-3-oxo-N-[(2-pyrimidin-2-ylphenyl)methyl]-6,8-dihydro-5H-imidazo[1,5-a]pyrazine-1-carboxamide] | < 0.05 µM
14 | C[C@@H]1Cn2c(c(C(=O)NCc3ccccc3-c3cccnn3)n(-c3ccc(OC[C@@H](O)C(F)(F)F)cc3)c2=O)CN1C(=O)c1ccc(Br)c(C(F)(F)F)c1 (mixture of isomers) [Compound 66a, (6RS)-7-[4-bromo-3-(trifluoromethyl)benzoyl]-6-methyl-3-oxo-N-[(2-pyridazin-3-ylphenyl)methyl]-2-[4-[(2R)-3,3,3-trifluoro-2-hydroxy-propoxy]phenyl]-6,8-dihydro-5H-imidazo[1,5-a]pyrazine-1-carboxamide] | 0.05 to 0.5 µM
15 | C[C@H]1Cn2c(c(C(=O)NCc3ccccc3-c3ccncn3)n(-c3ccc4c(cnn4CC(F)(F)F)c3)c2=O)CN1C(=O)c1ccc(Br)c(C(F)(F)F)c1 (stereo in doubt) [Compound 72b, rac-(6S)-7-[4-bromo-3-(trifluoromethyl)benzoyl]-6-methyl-3-oxo-N-[(2-pyrimidin-4-ylphenyl)methyl]-2-[1-(2,2,2-trifluoroethyl)indazol-5-yl]-6,8-dihydro-SH-imidazo[1,5-a]pyrazine-1-carboxamide] | 0.05 to 0.5 µM
16 | CC1Cn2c(c(C(=O)NCc3ccccc3-c3cccnn3)n(-c3ccc(N4CC5(CN(C)C5)C4)cc3)c2=O)CN1C(=O)c1ccc(Br)c(C(F)(F)F)c1 (single isomer, unassigned) [Compound 76a] | 0.5 to 5 µM
17 | C[C@H]1Cn2c(c(C(=O)NCc3ccccc3-c3ccccn3)n(-c3ccc(OC[C@@H](O)C(F)(F)F)cc3)c2=O)CN1C(=O)c1ccc(Br)c(C(F)(F)F)c1 (mixture of isomers) [Compound 68b, (6SR)-7-[4-bromo-3-(trifluoromethyl)benzoyl]-6-methyl-3-oxo-N-[[2-(2-pyridyl)phenyl]methyl]-2-[4-[(2R)-3,3,3-trifluoro-2-hydroxy-propoxy]phenyl]-6,8-dihydro-5H-imidazo[1,5-a]pyrazine-1-carboxamide] | < 0.05 µM
18 | C[C@@H]1Cn2c(c(C(=O)NCc3ccccc3-c3ccccn3)n(-c3ccc(OC[C@@](C)(O)C(F)(F)F)cc3)c2=O)CN1C(=O)c1ccc(Br)c(C(F)(F)F)c1 (stereo in doubt) [Compound 89a, rac-(6R)-7-[4-bromo-3-(trifluoromethyl)benzoyl]-6-methyl-3-oxo-N-[[2-(2-pyridyl)phenyl]methyl]-2-[4-[rac-(2R)-3,3,3-trifluoro-2-hydroxy-2-methyl-propoxy]phenyl]-6,8-dihydro-5H-imidazo[1,5-a]pyrazine-1-carboxamide] | < 0.05 µM
19 | CC1Cn2c(c(C(=O)NCc3ccccc3-c3cccc(N)n3)n(-c3ccc(OC4CC4)cc3)c2=O)CN1C(=O)c1ccc(Br)c(Cl)c1 (single isomer, unassigned) [Compound 23a] | 0.05 to 0.5 µM
20 | CNc1cc(-c2ccccc2CNC(=O)c2c3n(c(=O)n2-c2ccc(OC4CC4)cc2)C[C@H](C)N(C(=O)c2ccc(Br)c(Cl)c2)C3)ncn1 (stereo in doubt) [Compound 39b, rac-(6S)-7-(4-bromo-3-chloro-benzoyl)-2-[4-(cyclopropoxy)phenyl]-6-methyl-N-[[246-(methylamino)pyrimidin-4-yl]phenyl]methyl]-3-oxo-6,8-dihydro-5H-imidazo[1,5-a]pyrazine-1-carboxamide] | < 0.05 µM
